The target of this experiment is (recombinant) catalytic domain of human Bub1 (amino acids 704-1085) (Homo sapiens (Human), UniProt O43683). The experiment in a line: Bub1 kinase assay (TR-FRET). Type of experiment: biochemical. Conditions: ATP 10 μM final, peptide substrate 1 μM final, 60 min at 22° C., read-out: Biological Assay: Bub1 kinase assay median IC50. In a few lines:
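Readout was TR-FRET between a Eu-labeled antibody complex recognizing phosphoserine and streptavidin-XL665 on the biotinylated peptide, after EDTA stop and 1 h at 22° C. The kinase reaction ran for 60 min at 22° C. Values are means or medians of repeat tests, from 4-parameter fits normalized to enzyme-free and inhibitor-free controls.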
Chain of (recombinant) catalytic domain of human Bub1 (amino acids 704-1085) (O43683 704-1085): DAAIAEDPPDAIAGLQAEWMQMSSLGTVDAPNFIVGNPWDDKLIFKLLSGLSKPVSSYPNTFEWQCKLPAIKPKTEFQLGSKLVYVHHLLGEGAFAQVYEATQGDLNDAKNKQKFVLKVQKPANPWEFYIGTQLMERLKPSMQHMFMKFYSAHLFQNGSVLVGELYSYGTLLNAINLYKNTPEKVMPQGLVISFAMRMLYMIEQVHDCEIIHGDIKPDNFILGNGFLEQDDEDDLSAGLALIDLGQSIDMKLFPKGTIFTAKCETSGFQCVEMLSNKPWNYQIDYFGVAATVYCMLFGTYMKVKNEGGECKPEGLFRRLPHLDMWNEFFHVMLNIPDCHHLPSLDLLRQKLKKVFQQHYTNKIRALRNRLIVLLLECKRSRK
Broadly, the IC50 is the concentration at which inhibition is half-maximal. Take `CC1(C)CC(=O)c2c([nH]c(-c3ccncc3)c2Nc2ccccc2)C1O` (centres unmarked) [Example 445, 7-hydroxy-6,6-dimethyl-3-(phenylamino)-2-(pyridin-4-yl)-1,5,6,7-tetrahydro-4H-indol-4-one]: the IC50 turned out to be 10 nM. Under `CNc1cc(-c2[nH]c3c(c2Nc2ccccc2)C(=O)CC(C)(C)C3)ccn1` [Example 145, 6,6-dimethyl-2-[2-(methylamino)pyridin-4-yl]-3-(phenylamino)-1,5,6,7-tetrahydro-4H-indol-4-one] stands 148 nM; under `O=C(CC1CC1)Nc1cc(-c2[nH]c3c(c2Nc2ccccc2)C(=O)CCC3)ccn1` [Example 231, 2-cyclopropyl-N-{4-[4-oxo-3-(phenylamino)-4,5,6,7-tetrahydro-1H-indol-2-yl]pyridin-2-yl}acetamide], 29.9 nM; under `O=C(COCc1ccccn1)Nc1cc(-c2[nH]c3c(c2Nc2ccccc2)C(=O)CCC3)ccn1` [Example 495, N-{4-[4-oxo-3-(phenylamino)-4,5,6,7-tetrahydro-1H-indol-2-yl]pyridin-2-yl}-2-(pyridin-2-ylmethoxy)acetamide], 10.6 nM. In the case of `CC(C)(C#N)C(=O)Nc1cc(-c2[nH]c3c(c2Nc2ccccc2)C(=O)CCC3)ccn1` [Example 245, 2-cyano-2-methyl-N-{4-[4-oxo-3-(phenylamino)-4,5,6,7-tetrahydro-1H-indol-2-yl]pyridin-2-yl}propanamide], the IC50 came out at 84.4 nM.

In the case of `CC1(C)CC(=O)c2c([nH]c(-c3ccncc3)c2Nc2ccc(F)c(F)c2)C1` [Example 21, 3-[(3,4-difluorophenyl)amino]-6,6-dimethyl-2-(pyridin-4-yl)-1,5,6,7-tetrahydro-4H-indol-4-one], the IC50 stood at 13.2 nM. Under `O=C(Nc1cc(-c2[nH]c3c(c2Nc2ccccc2)C(=O)CCC3)ccn1)c1ccccn1` [Example 269, N-{4-[4-oxo-3-(phenylamino)-4,5,6,7-tetrahydro-1H-indol-2-yl]pyridin-2-yl}pyridine-2-carboxamide] stands 29.4 nM; under `Cn1cc(C(=O)Nc2cc(-c3[nH]c4c(c3Nc3ccccc3)C(=O)CCC4)ccn2)cn1` [Example 447, 1-methyl-N-{4-[4-oxo-3-(phenylamino)-4,5,6,7-tetrahydro-1H-indol-2-yl]pyridin-2-yl}-1H-pyrazole-4-carboxamide], 11.2 nM; under `CC1(C)CC(=O)c2c([nH]c(-c3ccncc3)c2Nc2cccc(-c3ccco3)c2)C1` [Example 419, 3-{[3-(furan-2-yl)phenyl]amino}-6,6-dimethyl-2-(pyridin-4-yl)-1,5,6,7-tetrahydro-4H-indol-4-one], 11.8 nM. In the case of `O=C1CCCc2[nH]c(-c3ccnc(NC(=S)NC4CCCC4)c3)c(Nc3ccccc3)c21` [Example 397, 1-cyclopentyl-3-{4-[4-oxo-3-(phenylamino)-4,5,6,7-tetrahydro-1H-indol-2-yl]pyridin-2-yl}thiourea] it was 1050 nM; in that of `CCO/N=C1\CC(C)(C)Cc2[nH]c(-c3ccncc3)c(Nc3ccccc3)c21` [Example 491, 4-(ethoxyimino)-6,6-dimethyl-N-phenyl-2-(pyridin-4-yl)-4,5,6,7-tetrahydro-1H-indol-3-amine], 1240 nM.

In the case of `CC1(C)CC(=O)c2c([nH]c(-c3ccncc3)c2Nc2ccccc2C(C)(C)O)C1` [Example 488, 3-{[2-(2-hydroxypropan-2-yl)phenyl]amino}-6,6-dimethyl-2-(pyridin-4-yl)-1,5,6,7-tetrahydro-4H-indol-4-one], the IC50 worked out at 39.1 nM. Under `CC1(C)CC(=O)c2c([nH]c(-c3ccnc(NCCc4ccccc4)c3)c2Nc2ccccc2)C1` [Example 498, 6,6-dimethyl-3-(phenylamino)-2-{2-[(2-phenylethyl)amino]pyridin-4-yl}-1,5,6,7-tetrahydro-4H-indol-4-one] stands 1260 nM; under `O=C1CCCc2[nH]c(-c3ccncc3OCC(F)F)c(Nc3ccccc3)c21` [Example 457, 2-[3-(2,2-difluoroethoxy)pyridin-4-yl]-3-(phenylamino)-1,5,6,7-tetrahydro-4H-indol-4-one], 53.5 nM.
